Results: patent US11315685B2, “Method and system for predicting optimal epilepsy treatment regimes” (UCB BIOPHARMA SPRL, priority 2017, dated 2022)

test system: epilepsy patients; test: treatment stability of AED monotherapy in the one year evaluation period (medical claims data); format: in vivo; settings: percentage of patients for which the treatment worked based on the clinician's recommendation; stable = monotherapy for at least 80% of the one year evaluation period without switching; adult epilepsy patients
Description: Step 18 may also include a substep 18e of filtering patients according to a defined target variable indicating AED treatment regime efficacy. In some preferred embodiments, the target variable is treatment stability. An aim of the present disclosure is to measure the efficacy of treatment regimens consisting of one or more AEDs. One way of measuring the efficacy of treatment would be to monitor the patient's progress with respect to seizure frequency before and after treatment. A reduction in the number of seizures would imply that the regimen is effective. […] Accordingly, method 10 defines a proxy for treatment effectiveness. Based on input from domain experts and clinicians, method 10 uses treatment stability as an indicator of the effectiveness of a particular treatment. In some preferred embodiments, a treatment regimen is considered stable for a patient if the patient satisfies a treatment change criteria and a minimum coverage criteria. […] The minimum coverage criteria is satisfied if the patient complies with the treatment regimen which has been prescribed for at least a predetermined percentage of the evaluation period. In one preferred embodiment, the minimum coverage criteria is satisfied if the patient complies with the treatment regimen which has been prescribed for at least 80% evaluation period.
If the MPR is greater than 80%, the patient can be determined to be stable for that drug.
For the unstable outcome, a treatment change occurs during the evaluation period—i.e., within […] the index date at which a first treatment regimen R1 is prescribed—in the form of a second treatment regimen R2. For the stable outcome, a treatment change—i.e., the second regimen R2—occurs after the evaluation period.
In this embodiment, for simplicity, the three aforementioned treatment categories—i.e., ADD, SWITCH and NEW—are not differentiated between when defining the index date and, in contrast to the technique in Devinsky et al., all medication claims for a patient in the baseline period before the AED-specific index date are used to train the AED-specific predictive model for the patient. In other embodiments, the treatment categories can be analyzed separately to assess the efficacy of a treatment regimen in different scenarios. In this embodiment, predictive models are built only for monotherapies, instead of for both monotherapies and combination therapies. For a particular AED, all the adult patients who have been prescribed the AED, have at least 1 year of medical history before the prescription and have at least one year of evaluation period after prescription are analyzed. As mentioned above, this subset of patients constitutes the cohort for the predictive model for the AED being analyzed and the target variable is treatment stability.
The control patients refer to the number of patients which switched to treatments other than the one being analyzed in the evaluation window and were considered unstable on that treatment regimen. The percentage baseline success rate refers to the percentage of patients for which the treatment worked based on the clinician's recommendation. The AUC refers to the area under the ROC curve or the C-statistic which is the ratio of the true positive rate (TPR) and the false positive rate (FPR) for different values of the threshold. This ratio reflects the performance of the model since a higher AUC would imply that higher TPR was achieved and more true positives were obtained than false positives.

Row | Compound | Percentage Baseline Success Rate
1 | CCC1(c2ccccc2)C(=O)NCNC1=O [PRIMIDONE, Primidone] | 48.94
2 | NC(=O)N1c2ccccc2C=Cc2ccccc21 [CARBAMAZEPINE] | 54.76
3 | NS(=O)(=O)Cc1noc2ccccc12 [ZONISAMIDE, Zonisamide] | 42.95
4 | NCC1(CC(=O)O)CCCCC1 [GABAPENTIN, Gabapentin] | 35.69
5 | O=C1CN=C(c2ccccc2Cl)c2cc([N+](=O)[O-])ccc2N1 [CLONAZEPAM, Clonazepam] | 30.98
6 | O=C1Nc2ccc(Cl)cc2C(c2ccccc2Cl)=NC1O (stereo not drawn) [LORAZEPAM, Lorazepam] | 25.28
7 | CC[C@@H](C(N)=O)N1CCCC1=O [LEVETIRACETAM, Levetiracetam] | 54.99
8 | CN1C(=O)CN=C(c2ccccc2)c2cc(Cl)ccc21 [DIAZEPAM, Diazepam] | 25.22
9 | CCC1(c2ccccc2)C(=O)NC(=O)NC1=O [PHENOBARBITAL, Phenobarbital] | 55.76
10 | CC1(C)O[C@@H]2[C@@H](CO[C@@]3(COS(N)(=O)=O)OC(C)(C)O[C@@H]23)O1 [TOPIRAMATE, Topiramate] | 38.97
11 | CC(C)C[C@H](CN)CC(=O)O [PREGABALIN, Pregabalin] | 28.60
12 | Nc1nnc(-c2cccc(Cl)c2Cl)c(N)n1 [LAMOTRIGINE, Lamotrigine] | 53.32
13 | O=C1NC(=O)C(c2ccccc2)(c2ccccc2)N1 [PHENYTOIN, Phenytoin] | 45.01
14 | COC[C@@H](NC(C)=O)C(=O)NCc1ccccc1 [LACOSAMIDE, Lacosamide] | 37.73
15 | NC(=O)N1c2ccccc2CC(=O)c2ccccc21 [OXCARBAZEPINE, Oxcarbazepine] | 52.83
